According to patent US11168084B2, “Purine based compounds as toll-like receptor 9 antagonist” (COUNCIL OF SCIENTIFIC & INDUSTRIAL RESEARCH, priority 2017, dated 2021):

Molecular target: T1, toll-like receptor 9 (TLR9) (Homo sapiens, UniProt Q9NR96)
T1 construct: we isolated PBMCs from venous blood collected from healthy donors using density gradient centrifugation; endogenous in cells; host or cells: primary human PBMC (plasmacytoid dendritic cells) from healthy donors
T1 sequence (Q9NR96 26-1032): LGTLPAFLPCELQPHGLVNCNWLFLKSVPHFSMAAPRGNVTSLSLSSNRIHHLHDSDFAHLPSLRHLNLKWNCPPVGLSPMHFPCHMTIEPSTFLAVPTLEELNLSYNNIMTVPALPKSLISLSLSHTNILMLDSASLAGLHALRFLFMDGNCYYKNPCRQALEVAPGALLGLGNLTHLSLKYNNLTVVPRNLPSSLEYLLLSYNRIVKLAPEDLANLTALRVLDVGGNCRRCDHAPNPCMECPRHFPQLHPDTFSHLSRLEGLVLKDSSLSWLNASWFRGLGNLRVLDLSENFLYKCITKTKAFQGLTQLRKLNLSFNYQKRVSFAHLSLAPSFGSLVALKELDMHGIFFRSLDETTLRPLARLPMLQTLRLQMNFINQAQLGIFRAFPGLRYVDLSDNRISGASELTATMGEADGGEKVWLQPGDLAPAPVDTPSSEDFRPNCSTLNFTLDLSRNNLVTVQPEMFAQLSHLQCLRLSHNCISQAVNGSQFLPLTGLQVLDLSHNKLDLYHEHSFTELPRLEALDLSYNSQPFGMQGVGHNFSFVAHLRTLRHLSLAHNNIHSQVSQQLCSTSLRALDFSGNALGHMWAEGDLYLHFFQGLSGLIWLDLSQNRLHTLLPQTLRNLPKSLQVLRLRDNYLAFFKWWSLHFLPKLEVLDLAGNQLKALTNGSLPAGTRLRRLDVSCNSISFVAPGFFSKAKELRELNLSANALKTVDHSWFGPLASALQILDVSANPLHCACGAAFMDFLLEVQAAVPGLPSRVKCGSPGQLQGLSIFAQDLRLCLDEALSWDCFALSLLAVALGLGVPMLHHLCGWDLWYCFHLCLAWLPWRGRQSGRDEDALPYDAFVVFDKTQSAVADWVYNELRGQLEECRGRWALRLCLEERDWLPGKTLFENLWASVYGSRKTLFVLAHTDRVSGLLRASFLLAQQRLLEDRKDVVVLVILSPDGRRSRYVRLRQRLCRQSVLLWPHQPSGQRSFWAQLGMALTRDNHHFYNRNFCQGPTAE
Assay: Screening of TLR9 antagonistic activity: IFN-alpha production from human PBMC in response to CpGA (ELISA)
Type: cell-based
Settings: TLR9 antagonism; Table 2 does not say which of the three TLR9 assays
From the text: The principle of the screening assay was designed based on the production of Type I interferons (IFN-alpha) from human PBMCs, which results almost exclusively from TLR9 triggering on the PDCs by type A CpG oligonucleotides (CpGA). PBMCs were isolated from venous blood collected from healthy donors using density gradient centrifugation.
A medium throughput biological assay based on toll-like receptor 9 activation has been designed in primary human immune cells to screen the synthesized small molecules with general formula (I) for toll-like receptor 9 (TLR9) antagonism. Among the immune cell subsets circulating in the peripheral blood, two cell subsets plasmacytoid dendritic cells (PDCs) and B lymphocytes has significant expression of TLR9. Plasmacytoid dendritic cells are capable of producing type I interferons (e.g. IFN-alpha) in response to TLR9 ligands. Type A and type B unmethylated cytosine-guanine rich DNA oligonucleotides (CpG oligonucleotides) are the bonafide ligands for TLR9.
In the screening assay we isolated PBMCs from venous blood collected from healthy donors using density gradient centrifugation. PBMCs were cultured the at 2-3*10^5 cells/200 ul/well in a 96 well plate. TLR9 agonist CpGA was added at 1 uM in presence of escalating doses of the synthesized small molecules (0 uM, 0.1 uM, 1 uM, 5 uM, 10 uM and 20 uM). The supernatants was collected after overnight culture from the culture wells and looked for IFN-alpha using enzyme linked immunosorbent assay (ELISA). […] For the biological validation of TLR9 antagonism the bona fide TLR9 agonist CpG oligonucleotides were used.

Row | Molecule | IC50 [nM]
1 | CCN1CCN(CCCn2cnc3c(N4CCN(CC)CC4)nc(NCc4ccc(OC)cc4)nc32)CC1 [Compound 5, 6-(4-ethylpiperazin-1-yl)-9-(3-(4-ethylpiperazin-1-yl)propyl)-N-(4-methoxybenzyl)-9H-purin-2-amine] | 203
2 | CCN1CCN(CCCn2cnc3c(N4CCN(CC)CC4)nc(NCc4ccc(F)cc4)nc32)CC1 [Compound 6, 6-(4-ethylpiperazin-1-yl)-9-(3-(4-ethylpiperazin-1-yl)propyl)-N-(4-fluorobenzyl)-9H-purin-2-amine] | 470
3 | CCN1CCN(CCCn2cnc3c(N4CCN(CC)CC4)nc(N4CCCC4)nc32)CC1 [Compound 9] | 1830
4 | CCN1CCN(CCCn2cnc3c(N4CCN(CC)CC4)nc(NC(=O)c4ccccc4)nc32)CC1 [Compound 10, N-(6-(4-ethylpiperazin-1-yl)-9-(3-(4-ethylpiperazin-1-yl)propyl)-9H-purin-2-yl)benzamide] | 339
5 | CCN1CCN(CCCn2cnc3c(N4CCN(CC)CC4)nc(NC(=O)C4CCCN4)nc32)CC1 (stereo not shown) [Compound 12, N-(6-(4-ethylpiperazin-1-yl)-9-(3-(4-ethylpiperazin-1-yl)propyl)-9H-purin-2-yl) pyrrolidine-2-carboxamide] | 378
6 | CCN1CCN(CCCn2cnc3c(N4CCN(C5CCCC5)CC4)nc(NCc4ccc(N(CC)CC)cc4)nc32)CC1 [Compound 24] | 145
7 | CCN1CCN(CCCn2cnc3c(N4CCN(C5CCCC5)CC4)nc(NCc4ccc(F)cc4)nc32)CC1 [Compound 25, 6-(4-cyclopentylpiperazin-1-yl)-9-(3-(4-ethylpiperazin-1-yl)propyl)-N-(4-fluorobenzyl)-9H-purin-2-amine] | 254
8 | CCN1CCN(CCCn2cnc3c(N4CCN(C5CCCC5)CC4)nc(NC(=O)c4ccc(CN(C)C)cc4)nc32)CC1 [Compound 27, N-(6-(4-cyclopentylpiperazin-1-yl)-9-(3-(4-ethylpiperazin-1-yl)propyl)-9H-purin-2-yl)-4-((dimethylamino)methyl)benzamide] | 56
9 | Nc1nc(N2CCN(C3CCCC3)CC2)c2ncn(CCCN3CCCC3)c2n1 [Compound 29, 6-(4-cyclopentylpiperazin-1-yl)-9-(3-(pyrrolidin-1-yl)propyl)-9H-purin-2-amine] | 122
10 | Fc1ccc(CNc2nc(N3CCN(C4CCCC4)CC3)c3ncn(CCCN4CCCC4)c3n2)cc1 [Compound 32, 6-(4-cyclopentylpiperazin-1-yl)-N-(4-fluorobenzyl)-9-(3-(pyrrolidin-1-yl)propyl)-9H-purin-2-amine] | 100
11 | CCN1CCN(CCCn2cnc3c(N4CCN(C(=O)C5CCCC5)CC4)nc(NCc4ccc(N(CC)CC)cc4)nc32)CC1 [Compound 38, Cyclopentyl(4-(2-(4-(diethylamino)benzylamino)-9-(3-(4-ethylpiperazin-1-yl)propyl)-9H-purin-6-yl)piperazin-1-yl)methanone] | 8800

Other lines, results leading:

Row | IC50 [nM] | Molecule
12 | 188 | CCN1CCN(CCCn2cnc3c(N4CCN(CC)CC4)nc(N)nc32)CC1 [Compound 4, 6-(4-ethylpiperazin-1-yl)-9-(3-(4-ethylpiperazin-1-yl)propyl)-9H-purin-2-amine]
13 | 438 | CCN1CCN(CCCn2cnc3c(N4CCN(CC)CC4)nc(NCc4ccc(N(CC)CC)cc4)nc32)CC1 [Compound 7, N-(4-(diethylamino)benzyl)-6-(4-ethylpiperazin-1-yl)-9-(3-(4-ethylpiperazin-1-yl)propyl)-9H-purin-2-amine]
14 | 140 | CCN1CCN(CCCn2cnc3c(N4CCN(CC)CC4)nc(NCc4ccccc4)nc32)CC1 [Compound 8, N-benzyl-6-(4-ethylpiperazin-1-yl)-9-(3-(4-ethylpiperazin-1-yl)propyl)-9H-purin-2-amine]
15 | 120 | CCN1CCN(CCCn2cnc3c(N4CCN(C5CCCC5)CC4)nc(NCc4ccc(OC)cc4)nc32)CC1 [Compound 26, 6-(4-cyclopentylpiperazin-1-yl)-9-(3-(4-ethylpiperazin-1-yl)propyl)-N-(4-methoxybenzyl)-9H-purin-2-amine]
16 | 241 | COc1ccc(CNc2nc(N3CCN(C4CCCC4)CC3)c3ncn(CCCN4CCCC4)c3n2)cc1 [Compound 30, 6-(4-cyclopentylpiperazin-1-yl)-N-(4-methoxybenzyl)-9-(3-(pyrrolidin-1-yl)propyl)-9H-purin-2-amine]
17 | 5 | CN(C)Cc1ccc(C(=O)Nc2nc(N3CCN(C4CCCC4)CC3)c3ncn(CCCN4CCCC4)c3n2)cc1 [Compound 31, N-(6-(4-cyclopentylpiperazin-1-yl)-9-(3-(pyrrolidin-1-yl)propyl)-9H-purin-2-yl)-4-((dimethylamino)methyl)benzamide]
18 | 80 | CCN1CCN(c2nc(NCc3ccc(OC)cc3)nc3c2ncn3CCCN2CCCC2)CC1 [Compound 34, 6-(4-ethylpiperazin-1-yl)-N-(4-methoxybenzyl)-9-(3-(pyrrolidin-1-yl)propyl)-9H-purin-2-amine]
19 | 470 | Iso-butyl(1-(6-(4-ethylpiperazin-1-yl)-9-(3-(4-ethylpiperazin-1-yl)propyl)-9H-purin-2-yl)amino)-1-oxo-3-phenylpropan-2-yl)carbamate [Compound 15]
